Consider seven compounds from ChEMBL document CHEMBL1154439, “Activity of a hydroxybibenzyl bryophyte constituent against Leishmania spp. and Trypanosoma cruzi: in silico, in vitro and in vivo activity studies” (Eur J Med Chem, 2008).

For series [1], the system named is Trypanosoma cruzi. The series is described as follows: Trypanocidal activity against Trypanosoma cruzi CL-B5 clone epimastigotes expressing lacZ gene after 72 hrs at 28 degC. It is filed as functional, organism-based.
Series [2] relates to Trypanosoma cruzi. The series is described as follows: Antitrypanosomal activity against Trypanosoma cruzi CL-B5 amastigotes infected in mouse NCTC-929 fibroblast after 7 days by colorimetric method. It is filed as functional, organism-based. Particulars: NCTC-929, 168 h.
For series [3], the system named is Leishmania braziliensis. The series is described as follows: Antileishmanial activity against Leishmania braziliensis MHOM/BR/75/M2903 promastigotes assessed as lysis of promastigotes at 100 ug/ml after 72 hrs. It is filed as functional.
Series [4] relates to Leishmania amazonensis. The series is described as follows: Antileishmanial activity against Leishmania amazonensis IFLA/BR/67/PH8 promastigotes assessed as lysis of promastigotes at 100 ug/ml after 72 hrs. The format is functional.
Series [5] relates to Leishmania donovani. The series is described as follows: Antileishmanial activity against Leishmania donovani MHOM/BR/74/PP75 promastigotes assessed as lysis of promastigotes at 100 ug/ml after 72 hrs. It is filed as functional.
Series [6] deals with Leishmania amazonensis. The series is described as follows: Leishmanicidal activity against Leishmania amazonensis IFLA/BR/67/PH8 promastigotes at >13.03 uM after 72 hrs. It is filed as functional, organism-based.
For series [7], the system named is Leishmania amazonensis. The series is described as follows: Leishmanicidal activity against Leishmania amazonensis amastigotes infected in BALB/c mouse assessed as suppression of lesion weight at 25 mg/kg/day, sc administered 4 weeks after infection for 15 days measured after 1 week relative to control. The format is functional. Particulars: route subcutaneous.

In series [8] the test system is Leishmania amazonensis. The series is described as follows: Leishmanicidal activity against Leishmania amazonensis amastigotes infected in BALB/c mouse assessed as suppression of parasite load in lesions at 10 mg/kg/day, po administered 4 weeks after infection for 15 days measured after 1 week relative to control. It is filed as functional.
For series [9], the system named is Leishmania braziliensis. The series is described as follows: Leishmanicidal activity against Leishmania braziliensis MHOM/BR/75/M2903 promastigotes after 72 hrs. It is filed as functional, organism-based. Particulars: MHOM/BR/75/M2903, 72 h.
The nature of series [10]: Cytotoxicity against BALB/c mouse peritoneal macrophages at 21.7 uM after 48 hrs by trypan blue exclusion method. The format is cell-based. Particulars: macrophage.
In series [11] the test system is Leishmania amazonensis. The series is described as follows: Leishmanicidal activity against Leishmania amazonensis amastigotes infected in BALB/c mouse assessed as suppression of lesion weight at 10 mg/kg/day, sc administered 4 weeks after infection for 15 days measured after 1 week relative to control. It is filed as functional. Particulars: route subcutaneous.

The nature of series [12]: Cytotoxicity against BALB/c mouse peritoneal macrophages at 2.1 uM after 48 hrs by trypan blue exclusion method. The format is cell-based. Particulars: macrophage.
Series [13] in a line: Cytotoxicity against mouse NCTC-929 fibroblast at 2.1 uM after 24 hrs by resazurin test. Particulars: nctc-929, 24 h. On the technique in general: Resazurin is reduced to fluorescent resorufin, in cell work by metabolically active cells.
For series [14], the system named is Leishmania amazonensis. The series is described as follows: Leishmanicidal activity against Leishmania amazonensis amastigotes infected in BALB/c mouse assessed as suppression of lesion weight at 25 mg/kg/day, po administered 4 weeks after infection for 15 days measured after 1 week relative to control. The format is functional.
The test system of series [15] is Leishmania amazonensis. The series is described as follows: Leishmanicidal activity against Leishmania amazonensis amastigotes infected in BALB/c mouse assessed as suppression of parasite load in lesions at 25 mg/kg/day, sc administered 4 weeks after infection for 15 days measured after 1 week relative to control. Particulars: route subcutaneous. It is filed as functional.

Series [16] in a line: Cytotoxicity against BALB/c mouse peritoneal macrophages at 4.3 uM after 48 hrs by trypan blue exclusion method. The format is cell-based. Particulars: macrophage.
Series [17] concerns J774. The series is described as follows: Cytotoxicity against mouse J774 macrophages at 21.7 uM after 24 hrs by resazurin test. The format is cell-based. Particulars: j774, 24 h.
In series [18] the test system is Leishmania braziliensis. The series is described as follows: Leishmanicidal activity against Leishmania braziliensis MHOM/BR/75/M2903 promastigotes at >13.03 uM after 72 hrs. It is filed as functional, organism-based.
Series [19] deals with Leishmania amazonensis. The series is described as follows: Leishmanicidal activity against Leishmania amazonensis amastigotes infected in BALB/c mouse assessed as suppression of parasite load in lesions at 10 mg/kg/day, sc administered 4 weeks after infection for 15 days measured after 1 week relative to control. The format is functional. Particulars: route subcutaneous.

Series [20] concerns Leishmania donovani. The series is described as follows: Leishmanicidal activity against Leishmania donovani MHOM/BR/74/PP75 promastigotes after 72 hrs. It is filed as functional, organism-based.
The test system of series [21] is Leishmania donovani. The series is described as follows: Leishmanicidal activity against Leishmania donovani MHOM/BR/74/PP75 promastigotes at >13.03 uM after 72 hrs. It is filed as functional, organism-based.
Series [22] concerns Leishmania amazonensis. The series is described as follows: Leishmanicidal activity against Leishmania amazonensis amastigotes infected in BALB/c mouse assessed as suppression of lesion weight at 10 mg/kg/day, po administered 4 weeks after infection for 15 days measured after 1 week relative to control. The format is functional.
In series [23] the test system is J774. The series is described as follows: Cytotoxicity against mouse J774 macrophages at 2.1 uM after 24 hrs by resazurin test. Particulars: j774, 24 h. The format is cell-based.
Series [24] is described as follows: Cytotoxicity against mouse NCTC-929 fibroblast at 4.3 uM after 24 hrs by resazurin test. It is filed as cell-based. Particulars: nctc-929, 24 h.
Series [25] has as its system J774. The series is described as follows: Cytotoxicity against mouse J774 macrophages at 4.3 uM after 24 hrs by resazurin test. Particulars: j774, 24 h. It is filed as cell-based.
In series [26] the test system is Leishmania amazonensis. The series is described as follows: Antileishmanial activity against Leishmania amazonensis PH8 amastigotes infected in mouse peritoneal macrophages at >4.34 uM. It is filed as functional, organism-based.
Series [27] concerns Leishmania amazonensis. The series is described as follows: Leishmanicidal activity against Leishmania amazonensis amastigotes infected in BALB/c mouse assessed as suppression of parasite load in lesions at 25 mg/kg/day, po administered 4 weeks after infection for 15 days measured after 1 week relative to control. The format is functional.
Series [28] relates to Leishmania amazonensis. The series is described as follows: Antileishmanial activity against Leishmania amazonensis PH8 amastigotes infected in mouse peritoneal macrophages after 48 hrs. It is filed as functional, organism-based. Particulars: PH8, 48 h.
A short description of series [29]: Cytotoxicity against mouse NCTC-929 fibroblast at 21.7 uM after 24 hrs by resazurin test. The format is cell-based. Particulars: nctc-929, 24 h.
Series [30] can be described thus: Cytotoxicity against mouse NCTC-929 fibroblast at 8.6 uM after 24 hrs by resazurin test. The format is cell-based. Particulars: nctc-929, 24 h.
The nature of series [31]: Cytotoxicity against BALB/c mouse peritoneal macrophages at 8.6 uM after 48 hrs by trypan blue exclusion method. The format is cell-based. Particulars: macrophage.
Series [32] deals with Leishmania amazonensis. The series is described as follows: Leishmanicidal activity against Leishmania amazonensis IFLA/BR/67/PH8 promastigotes after 72 hrs. The format is functional, organism-based. Particulars: IFLA/BR/67/PH8, 72 h.
The test system of series [33] is J774. The series is described as follows: Cytotoxicity against mouse J774 macrophages at 8.6 uM after 24 hrs by resazurin test. Particulars: j774, 24 h. It is filed as cell-based.
Series [34] concerns Leishmania amazonensis. The series is described as follows: Leishmanicidal activity against Leishmania amazonensis amastigotes infected in BALB/c mouse assessed as suppression of lesion weight at 100 mg/kg/day, sc administered 4 weeks after infection for 15 days measured after 1 week relative to control. The format is functional, organism-based.
In series [35] the test system is Leishmania amazonensis. The series is described as follows: Leishmanicidal activity against Leishmania amazonensis amastigotes infected in BALB/c mouse assessed as suppression of parasite load in lesions at 100 mg/kg/day, sc administered 4 weeks after infection for 15 days measured after 1 week relative to control. The format is functional, organism-based.

By IC50 is commonly meant the concentration that inhibits the measured activity by half. High values mean a need for much substance, low ones inhibition by little substance.

Activity calls are given as the source filed them. The rule behind the calls is not given here.

Take `O=C(Cn1ccnc1[N+](=O)[O-])NCc1ccccc1` [BENZNIDAZOLE]: the IC50 amounted to 54.7 µM in the series with Trypanosoma cruzi [1] and 192 µM with Trypanosoma cruzi [2].

For the compound `COc1ccc(CCc2cc(OC)ccc2OC)cc1`, the Activity in the series on Leishmania braziliensis [3] and with Leishmania amazonensis [4] was below 70% throughout.

Regarding `Oc1ccc(/C=C/c2cc(O)cc(O)c2)cc1` [RESVERATROL], the Activity in the series with Leishmania braziliensis [3] was 80%; with Leishmania amazonensis [4], below 70%; with Leishmania donovani [5], below 70%.

Consider `Oc1ccc(CCc2cc(O)ccc2O)cc1`, for which the result in the series with Leishmania amazonensis [6], with Leishmania braziliensis [18], in the series with Leishmania donovani [21] and in the series on Leishmania amazonensis [26] was Active. The Activity in the series with Leishmania braziliensis [3] is on record as 100%; in the series with Leishmania amazonensis [7], 98.3%; in the series with Leishmania amazonensis [8] it was 68.6%; in [10], 1.4%; in the series with Leishmania amazonensis [11], 95.9%; in series [12] it was 0%. Besides, the Activity is 0% in [13]; 80.9% in the series on Leishmania amazonensis [14]; 97% with Leishmania amazonensis [15]; 0% in series [16]; 18.88% with J774 [17]; 100% in the series with Leishmania amazonensis [4]. The Activity is given as 93% with Leishmania amazonensis [19]; 90% in the series on Leishmania amazonensis [22]; 0.76% with J774 [23]; 0.66% in series [24]; 2.11% with J774 [25]; 93.1% in the series with Leishmania amazonensis [27]. Moreover, the Activity came out at 100% in the series with Leishmania donovani [5]; 7.91% in series [29]; 2.93% in [30]; 0% in series [31]; 4.89% in the series with J774 [33]. For the same compound, the IC50 in the series on Leishmania braziliensis [9] was 1.1 µM; in the series with Trypanosoma cruzi [1] it was 5.8 µM; in the series on Leishmania donovani [20], 0.5 µM; in the series with Leishmania amazonensis [28], 1.5 µM; in the series with Leishmania amazonensis [32], 1.1 µM; with Trypanosoma cruzi [2] it was 17.3 µM.

`Oc1ccc(CCc2cccc(O)c2)cc1` [LUNULARIN]: the Activity with Leishmania braziliensis [3] and in the series on Leishmania amazonensis [4] was below 70% in each case.

Consider MEGLUMINE ANTIMONATE, for which the Activity worked out at 72.1% with Leishmania amazonensis [34] and 98.2% in the series on Leishmania amazonensis [35].

As for `N=C(N)c1ccc(OCCCCCOc2ccc(C(=N)N)cc2)cc1` [PENTAMIDINE], the IC50 stood at 9.8 µM in the series on Leishmania braziliensis [9], 9.8 µM in the series with Leishmania donovani [20], 0.9 µM in the series with Leishmania amazonensis [28] and 9.8 µM in the series with Leishmania amazonensis [32].
